# Measured values published in patent US8557225B2, “Solution and method for cleaning tooth enamel” (priority 2008, dated 2013).
# Assays:
# [1] = citric acid solution applied over the enamel; type: in vivo; settings: 6% citric acid in the improved solution, over the teeth enamel
# Description: Citric acid as incorporated in the present disclosure is an irrigating substance classified as a chelating agent which, due to its low pH, reacts with the metallic ions in the hydroxyapatite crystals in order to produce a metallic chelating agent which reacts with the chelating agent's terminal groups when removing calcium ions of the dentine, forming a ring. The dentine softens changing the solubility and permeability aspects of the tissue, especially the peritubular dentine, rich in hydroxyapatite, increasing the diameter of the exposed dental tubes. These chelating agent properties also provide a great affinity as thus used due to ferrous alkali characteristics of the dental structure. Also, this chelating agent is naturally found inside the body, thus making it biologically more acceptable than other acids. Citric acid is effective in altering the hydroxyapatite solubility; it has been used in several concentrations, from 0.6 up to 50% by weight. Its effect is very fast and it only requires five seconds to apply a 6% solution over the enamel to remove the undesired dental covering.
# This action is favorably strengthened when citric acid (C6O7H8) is included in the composition at the approximate 6% (weight percent) level. (Tables 1 and 2). […]
# [2] = 6% solution applied over the enamel; cited from earlier work
smiles,measurement,setting,value
"O=C(O)CC(O)(CC(=O)O)C(=O)O [Citric acid, citric acid]",time required after applying for dissolving the organic matter,[1],thirty seconds
same,time required to remove the undesired dental covering,[2],five seconds
